Measured values published in US7994189B2, “Dihydropyridine derivatives” (N.V. Organon, priority 2005, dated 2011).

Target: T1, human FSH receptor (Homo sapiens, UniProt P23945)
T1 construct: expressed in transfected cells; host or cells: Chinese Hamster Ovary (CHO) cells
T1 sequence (P23945 18-695): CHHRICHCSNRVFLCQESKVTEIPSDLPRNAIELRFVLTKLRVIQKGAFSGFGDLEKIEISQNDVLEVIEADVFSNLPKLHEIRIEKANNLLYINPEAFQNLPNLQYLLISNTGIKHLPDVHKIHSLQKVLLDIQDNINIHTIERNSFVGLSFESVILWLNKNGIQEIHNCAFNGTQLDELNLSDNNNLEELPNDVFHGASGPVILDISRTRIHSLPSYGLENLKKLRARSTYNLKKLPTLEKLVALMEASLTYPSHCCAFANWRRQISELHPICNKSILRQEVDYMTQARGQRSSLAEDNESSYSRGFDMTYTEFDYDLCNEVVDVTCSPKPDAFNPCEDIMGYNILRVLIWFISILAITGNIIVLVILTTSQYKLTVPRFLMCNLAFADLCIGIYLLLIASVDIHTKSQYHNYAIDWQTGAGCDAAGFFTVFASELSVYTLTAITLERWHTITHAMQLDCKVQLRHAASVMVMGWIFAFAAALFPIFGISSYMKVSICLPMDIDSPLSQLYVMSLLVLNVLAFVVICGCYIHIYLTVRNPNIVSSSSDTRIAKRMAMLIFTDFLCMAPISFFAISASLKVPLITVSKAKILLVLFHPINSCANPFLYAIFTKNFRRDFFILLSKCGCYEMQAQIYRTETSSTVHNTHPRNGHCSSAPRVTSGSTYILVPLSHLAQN
Experiment: CHO-FSH in vitro bioactivity (CRE/luciferase reporter gene)
Type: cell-based
Settings: CHO cells stably transfected with the human FSH receptor and CRE/firefly luciferase reporter; luminescence; read-out: EC50 (concentration of test compound causing half-maximal (50%) stimulation)
Procedure: CHO-FSH In Vitro Bioactivity
FSH activity of compounds were tested in Chinese Hamster Ovary (CHO) cells stably transfected with the human FSH receptor and cotransfected with a cAMP responsive element (CRE)/promotor directing the expression of a firefly luciferase reporter gene. Binding of ligand to the Gs-coupled FSH receptor will result in an increase of cAMP, which in turn will induce an increased transactivation of the luciferase reporter construct. The luciferase signal was quantified using a luminescence counter. For test compounds, EC50 values (concentration of test compound causing half-maximal (50%) stimulation) were calculated. For that purpose the software program GraphPad PRISM, version 3.0 (GraphPad software Inc., San Diego) was used.

EC50	SMILES
< 1 nM	CCCC1CC(=O)C2=C(C1)NC(C)=C(C#N)C2c1cc(Br)c(OCc2cccc(C(=O)NCC(=O)OC)c2)c(OCC)c1 (centres unmarked) [Example 24, Glycine N-3-[2-bromo-4-(3-cyano-2-methyl-5-oxo-7-propyl-1,4,5,6,7,8-hexahydroquinolin-4-yl)-6-ethoxyphenoxymethyl]benzoyl methyl ester]
< 1 nM	CCCC1CC(=O)C2=C(C1)NC(C)=C(C#N)C2c1cc(Br)c(OCc2ccc(C(=O)NCc3cccs3)cc2)c(OCC)c1 (centres unmarked) [Example 29, 4-[2-Bromo-4-(3-cyano-2-methyl-5-oxo-7-propyl-1,4,5,6,7,8-hexahydroquinolin-4-yl)-6-ethoxyphenoxymethyl]-N-thiophen-2-ylmethylbenzamide]
